From patent US20210285933A1, “HIGH THROUGHPUT DRUG SCREENING OF CANCER STEM CELLS” (UNIVERSITY OF WASHINGTON, priority 2018, published 2021)
“Also recorded” adds a separate entry of the source. Residues, ends and D or L forms follow the SMILES beside them. *: point of attachment. Cbz = O=C(OCc1ccccc1)*

How the values were obtained:
[1] = test system: leukemia stem cells (LSCs) CD34+CD38low or negCD123+ from AML patient samples; assay: High throughput functional drug screen (72-hour exposure, CellTiter Glo viability) on FACS sorted LSCs; format: cell-based, human; design: AUC Stem Mean: unit not given here; settings: for LSC drug response in dose response curves: FIG. 1C; for Effectiveness vs. LSCs (AUCstem mean < mitomycin C AUCblast mean, p<0.1): aggregate viability data of patient samples, in vitro 72 h; for mean IC50 of LSC samples compared to predicted plasma concentration: FIG. 9, expected plasma concentration in patients with typical dosing; for AUC Stem Mean: mean area under dose response curve across patient samples, 72-hour exposure, 8 concentrations
Method: (§1) Isolation of blasts and FACS isolation of LSCs: CD34+ blasts were enriched to >90% using immunomagnetic beads (QuadroMACS). Fluorescence activated cell sorting was performed in a biosafety cabinet enclosed FACS-Aria II (Becton-Dickinson; San Jose, Calif.) housed in the University of Washington Core Cell Analysis Facility where voltage was standardized and calibration was performed daily. Mononuclear cells were stained with allophycocyanin H7 (APC-H7) conjugated anti-human CD45, allophycocyanin (APC) conjugated anti-human CD34, phycoerythrin-Cy7 (PE-Cy7) conjugated anti-human CD38 and phycoerythrin (PE) conjugated anti-human CD123 (all from BD Biosciences Pharmingen, San Jose, Calif.). Initially a blast gate was applied for forward scatter vs. side scatter, then sequential gates for CD45 vs. side scatter, CD34+ and CD38^low or neg, then CD123+ cells to yield the LSCs. The CD38low population was defined by CD38 above the isotype control and below that of mature precursors. Flow cytometry data analysis was performed using FlowJo software (Tree Star, Inc. Ashland, Oreg.).
(§2) After overnight incubation on matrix protein coated 384 well plates, drugs were added to each well using a CyBio Well Vario liquid handler (Amalytik Jena). The cell populations were analyzed for survival after a 72-hour exposure to 8 customized drug concentrations (within the range of 5 pM to 100 microM) of each drug spanning 4 logs. Post exposure viability was measured using CellTiter Glo luminescent reagent (Promega, Madison, Wis.) per manufacturer protocol, then the plates were analyzed with the Envision Multi-label plate reader (Perkin Elmer, Waltham, Mass.). XLFit software (IDBS, Guildford, Surrey, United Kingdom) was used to analyze the data and generate dose response curves based on standard 4-parameter logistic fit. For each plate, data were normalized to DMSO 100% viability and blank controls.
(§3) Area under the curve (AUC) was calculated for each dose response curve. For the 4 patient samples, two-sample two-tailed t-tests were used for group comparisons of AUC values to determine drug specificity and efficacy.
(§4) Drug specificity was defined by group comparisons between AUCs for each drug and cell type across patient samples. […] Group comparisons for categorical variable were completed using Fisher's exact test.

[2] = test system: AML blasts vs. leukemia stem cells (LSCs); assay: Drug specificity: group comparison of AUCs, blasts vs. LSCs across patient samples; format: cell-based, human; settings: aggregate viability data of patient samples; pairwise p-value<0.1
Method: as §2, §3, §4

[3] = test system: AML blasts (CD45dim, side scatter low) from patient samples; assay: High throughput functional drug screen (72-hour exposure, CellTiter Glo viability) on AML blasts; format: cell-based, human; settings: for mean IC50 of blast samples compared to predicted plasma concentration: FIG. 9, expected plasma concentration in patients with typical dosing
Method: as §1
Functional Drug Screen: A CLIA-validated in vitro sensitivity assay was performed that included both FDA approved and investigational drugs. ‘Oncopane11’ comprised of 153 drugs was used for HTS of patient samples and an earlier generation panel of 160 drugs was used for HTS of the NOD/SCID IL2R γc−/− mouse engraftment sample. As detailed above, for the 4 patient samples, using FACS, the blast population (CD45^dim, side scatter^low) was confirmed to be >90% of the viable white blood cell fraction, and the LSC subpopulation (CD34^+CD38^low or negCD123^+) was isolated. For the NOD/SCID IL2R γc−/− mouse engraftment sample, both the pre-engraftment AML blasts (>90% blasts by FACs) and splenic mononuclear cells (91% hCD45+ engrafting subclone as above) were assayed. After overnight incubation on matrix protein coated 384 well plates, drugs were added to each well using a CyBio Well Vario liquid handler (Amalytik Jena). The cell populations were analyzed for survival after a 72-hour exposure to 8 customized drug concentrations (within the range of 5 pM to 100 microM) of each drug spanning 4 logs. Post exposure viability was measured using CellTiter Glo luminescent reagent (Promega, Madison, Wis.) per manufacturer protocol, then the plates were analyzed with the Envision Multi-label plate reader (Perkin Elmer, Waltham, Mass.). XLFit software (IDBS, Guildford, Surrey, United Kingdom) was used to analyze the data and generate dose response curves based on standard 4-parameter logistic fit. For each plate, data were normalized to DMSO 100% viability and blank controls.
as §3
Drug specificity was defined by group comparisons between AUCs for each drug and cell type across patient samples. For blast specific drugs AUCstem mean>AUCblast mean and for LSC specific drugs AUC^stem mean<AUC^blast mean (p<0.1). […] This approach was selected to detect differences within the small sample size, while still maintaining statistical stringency and capturing trends observed in the data set. Group comparisons for categorical variable were completed using Fisher's exact test.

LSCs = settings: literature; cited from earlier work

Cc1csc(-c2nnc(Nc3ccc(Oc4ncccc4-c4ccnc(N)n4)cc3)c3ccccc23)c1 [AMG-900]
LSC drug response in dose response curves ([1]; patient sample on the right): sensitive

Nc1ncn([C@@H]2O[C@H](CO)[C@@H](O)[C@H]2O)c(=O)n1 [Azacitidine]
Drug specificity (blast specific: AUCstem mean>AUCblast mean; LSC specific: AUCstem mean<AUCblast mean) [2]: LSC specific; also recorded: LSC-specific
Effectiveness vs. LSCs (AUCstem mean < mitomycin C AUCblast mean, p<0.1) [1]: did not result in appreciable cytotoxicity

Nc1nc(Cl)nc2c1ncn2[C@H]1C[C@H](O)[C@@H](CO)O1 [Cladribine]
Drug specificity (blast specific: AUCstem mean>AUCblast mean; LSC specific: AUCstem mean<AUCblast mean) [2]: blast cell specific; also recorded: blast cell-specific
mean IC50 of LSC samples compared to predicted plasma concentration [1]: greater than the predicted plasma concentration
mean IC50 of blast samples compared to predicted plasma concentration [3]: less than predicted plasma concentration

CC1(COc2ccc3c(c2)ncn3-c2ccc3cccc(N4CCC(N)CC4)c3n2)COC1 [Crenolanib]
AUC Stem Mean [1]: 0.0054

Nc1ccn([C@@H]2O[C@H](CO)[C@@H](O)[C@@H]2O)c(=O)n1 [Cytarabine]
Drug specificity (blast specific: AUCstem mean>AUCblast mean; LSC specific: AUCstem mean<AUCblast mean) [2]: blast cell specific; also recorded: blast cell-specific
LSC drug response in dose response curves ([1]; patient sample on the left): resistant
LSC drug response in dose response curves ([1]; patient sample on the right): resistant
mean IC50 of LSC samples compared to predicted plasma concentration [1]: greater than the predicted plasma concentration
mean IC50 of blast samples compared to predicted plasma concentration [3]: less than predicted plasma concentration

CCc1cnn2c(NCc3ccc[n+]([O-])c3)cc(N3CCCC[C@H]3CCO)nc12 [Dinaciclib]
AUC Stem Mean [1]: 0.048

COc1cc([C@@H]2c3cc4c(cc3[C@@H](O[C@@H]3O[C@@H]5CO[C@@H](C)O[C@H]5[C@H](O)[C@H]3O)[C@H]3COC(=O)[C@H]23)OCO4)cc(OC)c1O [Etoposide]
Drug specificity (blast specific: AUCstem mean>AUCblast mean; LSC specific: AUCstem mean<AUCblast mean) [2]: blast cell specific; also recorded: blast cell-specific
mean IC50 of LSC samples compared to predicted plasma concentration [1]: greater than the predicted plasma concentration
mean IC50 of blast samples compared to predicted plasma concentration [3]: less than predicted plasma concentration

CC(=O)[C@]1(O)Cc2c(O)c3c(c(O)c2[C@@H](O[C@H]2C[C@H](N)[C@H](O)[C@H](C)O2)C1)C(=O)c1ccccc1C3=O [Idarubicin]
Drug specificity (blast specific: AUCstem mean>AUCblast mean; LSC specific: AUCstem mean<AUCblast mean) [2]: blast cell specific; also recorded: blast cell-specific
LSC drug response in dose response curves ([1]; patient sample on the left): resistant
mean IC50 of LSC samples compared to predicted plasma concentration [1]: greater than the predicted plasma concentration
mean IC50 of blast samples compared to predicted plasma concentration [3]: less than predicted plasma concentration

CC(C)C[C@@H](C=O)NC(=O)[C@H](CC(C)C)NC(=O)[C@H](CC(C)C)NC(=O)OCc1ccccc1 [MG-132] (Cbz-Leu-Leu-Leu-aldehyde)
AUC Stem Mean [1]: 0.0039

CO[C@@]12[C@H](COC(N)=O)C3=C(C(=O)C(C)=C(N)C3=O)N1C[C@@H]1N[C@@H]12 [Mitomycin C]
Drug specificity (blast specific: AUCstem mean>AUCblast mean; LSC specific: AUCstem mean<AUCblast mean) [2]: blast cell specific
LSC response to mitomycin C in dose response curves ([1]; FIG. 3, both patient samples): resistant
Blast response to mitomycin C in dose response curves ([3]; FIG. 3, both patient samples): sensitive

Nc1ccccc1NC(=O)c1ccc(CNc2nccc(-c3cccnc3)n2)cc1 [Mocetinostat]
Effectiveness vs. LSCs (AUCstem mean < mitomycin C AUCblast mean, p<0.1) [1]: LSC effective
AUC Stem Mean [1]: 0.0029

Cc1ccc([N+](=O)[O-])cc1S(=O)(=O)N(C)/N=C/c1cnc2ccc(Br)cn12 [PIK-75]
Effectiveness vs. LSCs (AUCstem mean < mitomycin C AUCblast mean, p<0.1) [1]: effective
AUC Stem Mean [1]: 0.0041

Cc1ccc(C(=O)Nc2ccc(CN3CCN(C)CC3)c(C(F)(F)F)c2)cc1C#Cc1cnc2cccnn12 [Ponatinib]
AUC Stem Mean [1]: 0.00085

C/C=C1\NC(=O)[C@H]2CSSCC/C=C/[C@H](CC(=O)N[C@H](C(C)C)C(=O)N2)OC(=O)[C@H](C(C)C)NC1=O [Romidepsin]
AUC Stem Mean [1]: 0.00041

CN1CCC(CNc2ccc3ncc(-c4cccc(OC(F)(F)F)c4)n3n2)CC1 [SGI-1776]
AUC Stem Mean [1]: 0.00076

CNC(=O)c1cc(Oc2ccc(NC(=O)Nc3ccc(Cl)c(C(F)(F)F)c3)cc2)ccn1 [Sorafenib]
Drug specificity (blast specific: AUCstem mean>AUCblast mean; LSC specific: AUCstem mean<AUCblast mean) [2]: LSC specific; also recorded: LSC-specific
Effectiveness vs. LSCs (AUCstem mean < mitomycin C AUCblast mean, p<0.1) [1]: effectively killed; also recorded: effective
AUC Stem Mean [1]: 0.0045

CCN(CC)CCNC(=O)c1c(C)[nH]c(/C=C2\C(=O)Nc3ccc(F)cc32)c1C [Sunitinib]
AUC Stem Mean [1]: 0.00039

COCCn1c2c([n+](Cc3cnccn3)c1C)C(=O)c1ccccc1C2=O [YM-155]
LSC drug response in dose response curves ([1]; patient sample on the left): sensitive
Effectiveness vs. LSCs (AUCstem mean < mitomycin C AUCblast mean, p<0.1) [1]: effective
AUC Stem Mean [1]: 0.00089

CC(C)C[C@H](NC(=O)[C@H](Cc1ccccc1)NC(=O)c1cnccn1)B(O)O [bortezomib]
Effectiveness vs. LSCs (AUCstem mean < mitomycin C AUCblast mean, p<0.1) [1]: ineffective

Nc1nc(Cl)nc2c1ncn2[C@@H]1O[C@H](CO)[C@@H](O)[C@@H]1F [clofarabine]
Drug specificity (blast specific: AUCstem mean>AUCblast mean; LSC specific: AUCstem mean<AUCblast mean) [2]: trended towards blast cell specific; also recorded: trended towards blast cell-specific
mean IC50 of LSC samples compared to predicted plasma concentration [1]: greater than the predicted plasma concentration
mean IC50 of blast samples compared to predicted plasma concentration [3]: less than predicted plasma concentration

COc1cccc2c1C(=O)c1c(O)c3c(c(O)c1C2=O)C[C@@](O)(C(C)=O)C[C@@H]3O[C@H]1C[C@H](N)[C@H](O)[C@H](C)O1 [daunorubicin]
Drug specificity (blast specific: AUCstem mean>AUCblast mean; LSC specific: AUCstem mean<AUCblast mean) [2]: non-specific
LSC drug response in dose response curves ([1]; patient sample on the right): resistant
mean IC50 of LSC samples compared to predicted plasma concentration [1]: opposite pattern
mean IC50 of blast samples compared to predicted plasma concentration [3]: opposite pattern

Nc1ccn([C@@H]2O[C@H](CO)[C@@H](O)C2(F)F)c(=O)n1 [gemcitabine]
LSC drug response in dose response curves ([1]; patient sample on the left): sensitive

CC(C)C[C@H](NC(=O)CNC(=O)c1cc(Cl)ccc1Cl)B(O)O [ixazomib]
anti-LSC effect in vitro in prior studies (LSCs): anti-LSC effect was shown in vitro

O=C1c2c(O)ccc(O)c2C(=O)c2c(NCCNCCO)ccc(NCCNCCO)c21 [mitoxantrone]
Drug specificity (blast specific: AUCstem mean>AUCblast mean; LSC specific: AUCstem mean<AUCblast mean) [2]: trended towards blast cell specific; also recorded: trended towards blast cell-specific
mean IC50 of LSC samples compared to predicted plasma concentration [1]: less than predicted plasma concentration
mean IC50 of blast samples compared to predicted plasma concentration [3]: less than predicted plasma concentration
